Values quoted from earlier work as cited in patent publication US20170027908A1, “Pharmaceutical Composition” (CIPLA Limited, priority 2011, published 2017).

Assays:
[1] = tested on: airway hyperresponsiveness; conditions: as compared to fluticasone propionate
[2] = in vivo

elimination half life [2]: 15.1 h
Compound: C[C@@H]1C[C@H]2[C@@H]3C[C@H](F)C4=CC(=O)C=C[C@]4(C)[C@@]3(F)[C@@H](O)C[C@]2(C)[C@@]1(OC(=O)c1ccco1)C(=O)SCF [fluticasone furoate]
prolonged protection against airway hyperresponsiveness [1]: up to 26 hours
